The values that follow come from PMC12610573, “New Chlormequat-Based Ionic Liquids as Plant Resistance Inducers” (Molecules, 2025).

A short description of data set [1]: Solubility tests in representative solvents (Vogel protocol). The conditions noted are these: 25 °C; for Solubility in Hexane: Snyder polarity index 0.0; for Solubility in Toluene: Snyder polarity index 2.3; for Solubility in Isopropanol: Snyder polarity index 4.3; for Solubility in Acetone: Snyder polarity index 5.1; for Solubility in Methanol: Snyder polarity index 6.6; for Solubility in Water: Snyder polarity index 9.0. The protocol: The solubilities of the prepared ILs in ten representative solvents were determined according to the protocols from Vogel’s Textbook of Practical Organic Chemistry. The solvents chosen for the study were arranged in order of descending value of their Snyder polarity index: water—9.0, methanol—6.6, acetone—5.1, isopropanol—4.3, toluene—2.3, and hexane—0.0.

Data set [2] in a line: Thermogravimetric analysis (TGA), thermal stability. The conditions noted are these: TGA under nitrogen, 10 °C/min; for Thermal Stability T5%onset: 5% weight loss onset; for Thermal Stability Tonset: decomposition onset.
Experimental: TGA was performed on a TGA Q50 (Texas Instruments, Dallas, TX, USA) under nitrogen. Samples (5–10 mg) were heated from 25 °C to 500 °C at 10 °C/min with an isothermal step at 85 °C for 10 min. T5%onset and Tonset values were recorded.
For data set [3], the system named is radish (Raphanus sativus) sprouts. The experiment in a line: Phytotoxicity test on radish sprouts. Conditions: for Reduction in Sprout Mass: compared with untreated control; for Mass of 25 Sprouts: radish, 5 days, UTC 3.09 g. It is filed as in vivo. The protocol:
Twenty five seeds of radish (Raphanus sativus) were placed on a filter tissue in a Petri dish. […] Then, sprouts were weighted. All variants of treatment were tested together, with 3 replications (plates) in each of 2 cycles performed. Results were subjected to statistical analysis as described in Section 4.8.
(§1) Statistical significance of the effect of the treatments of plants with tested compounds on the phytotoxicity and SAR induction was assessed with the ANOVA test performed using the Statistica program StatSoft with software version 9.1 (StatSoft Sp. z o.o., Kraków, Poland). The statistical assumptions of normality and homogeneity of variances were verified prior to conducting the ANOVA tests. Differences between the means were estimated with Tukey’s HSD test at the significance level of p = 0.05.

The test system of data set [4] is Tobamovirus tabaci (tobacco mosaic virus, TMV) on Nicotiana tabacum cv. Xanthi. The experiment in a line: SAR induction assay: necrotic area after TMV inoculation of sprayed tobacco. Conditions: for SAR Induction (percentage of necrotic area on leaves): TMV inoculation after 7 days, read 7 days later, UTC 34.54; for Reduction in Necrotic Area: compared with untreated control plants; for Percentage of necrotic spot coverage (leaf shown in supplementary figure): single leaf image. In kind it is in vivo. The protocol:
Plants of Nicotiana tabacum cv. Xanthi were grown under greenhouse conditions at 25 °C and 50% relative humidity, under natural daylight during the May–August growing season, with a natural photoperiod. The plants were sprayed with solutions containing the tested compounds.
In all experiments, the TMV SL-1 isolate Tobamovirus (TMV) was used. To obtain a viral inoculum, Nicotiana tabacum cv. Samsun plants were sap-inoculated with previously virus-infected plant material. After the appearance of disease symptoms on the infected plants (leaf mosaic), the virus was isolated by sucrose density gradient centrifugation with 0.01 M Tris-HCl, pH 7.0, to prepare the infectious inoculum. The concentration of virus in the obtained preparation was determined spectrophotometrically. The samples of TMV were stored at −20 °C until use.
The tested active substances at a given concentration were sprayed on tobacco plants with three fully developed leaves. The volume of working solution used was equal to 10 mL per plant. The compounds were dissolved in a water/propylene glycol solution (95/5, v/v). The plants of the untreated control variant were sprayed with a water/propylene glycol solution (95/5, v/v) that was used for the preparation of solutions of the tested compounds. After seven days, the plants were mechanically inoculated using purified viral preparations (0.01 ng/mL as described in [34]).
The plants were inoculated with the TMV inoculum at a concentration of 3.8 × 10^−4 ng per leaf. For each variant of treatment, 3 plants were sprayed, and 3 leaves of each plant were analyzed. The entire experiment was performed in 2 replicates. Necrotic areas on the leaves were determined using ImageJ software.
The surface of a leaf or an area with necrotic spots is represented by a set of pixels in the image, which are counted by the program. Reduction in necrotic area (ISAR) is expressed by the following formula:(1) ISAR=100−(At/Ac∗100) where At is the ratio of the area of necrotic spots caused by viral infection that appeared on the leaf treated with the test substance to the whole area of the leaf; Ac is the ratio of the area of the necrotic spots caused by viral infection that appeared on the leaf of the control plant to the whole area of the leaf.
as §1

As for `C[N+](C)(C)CCCl.O=C([O-])c1cc(Cl)cc(Cl)c1O` [[CC][3,5-ClSal]], in data set [1], the “Solubility in Hexane” value is recorded as “− (insoluble)”, the “Solubility in Toluene” value is “− (insoluble)”, the “Solubility in Isopropanol” value is given as “+/− (of limited solubility)” and the “Solubility in Acetone” value is given as “− (insoluble)”. Also, in data set [1], the “Solubility in Methanol” value is listed as “+ (soluble)” and the “Solubility in Water” value is “+/− (of limited solubility)”. Further, the “Thermal Stability T5%onset” value in data set [2] is 208.3 °C. In data set [3] (125 mg/L), the “Reduction in Sprout Mass” value amounted to 27.51% and the “Mass of 25 Sprouts” value is given as 2.24 cde C g. For the same compound, in data set [3] (250 mg/L), the “Reduction in Sprout Mass” value is given as 37.38% and the “Mass of 25 Sprouts” value is 1.94 ef B g. Moreover, the “SAR Induction (percentage of necrotic area on leaves)” value in data set [4] (125 mg/L spray) stood at 7.79 ab A %. In data set [4] (125 mg/L), the “Reduction in Necrotic Area” value turned out to be 77.4%. For the same compound, the “SAR Induction (percentage of necrotic area on leaves)” value in data set [4] (250 mg/L spray) stood at 4.93 abc A %. Moreover, in data set [4] (250 mg/L), the “Reduction in Necrotic Area” value came to 85.7%.
For the compound `C[N+](C)(C)CCCl.O=C([O-])c1cccc(Cl)c1O` [[CC][3-ClSal]], in data set [1], the “Solubility in Hexane” value is “− (insoluble)”, the “Solubility in Toluene” value is recorded as “− (insoluble)”, the “Solubility in Isopropanol” value is “+/− (of limited solubility)” and the “Solubility in Acetone” value is “− (insoluble)”. In addition, in data set [1], the “Solubility in Methanol” value is recorded as “+ (soluble)” and the “Solubility in Water” value is on record as “+/− (of limited solubility)”. Besides, in data set [2], the “Thermal Stability T5%onset” value was determined as 196.2 °C and the “Thermal Stability Tonset” value stood at 136.1 °C. Moreover, in data set [3] (125 mg/L), the “Reduction in Sprout Mass” value came to 15.97% and the “Mass of 25 Sprouts” value was 2.60 fgh D. In addition, in data set [3] (250 mg/L), the “Reduction in Sprout Mass” value turned out to be 36.68% and the “Mass of 25 Sprouts” value came to 1.96 ef C g. Moreover, in data set [4] (125 mg/L spray), the “SAR Induction (percentage of necrotic area on leaves)” value was found to be 2.52 a AB %. In data set [4] (125 mg/L), the “Reduction in Necrotic Area” value stood at 92.7% and the “Percentage of necrotic spot coverage (leaf shown in supplementary figure)” value is on record as 0.79%. Moreover, the “SAR Induction (percentage of necrotic area on leaves)” value in data set [4] (250 mg/L spray) was 1.39 a A %. Also, in data set [4] (250 mg/L), the “Reduction in Necrotic Area” value was found to be 96.0% and the “Percentage of necrotic spot coverage (leaf shown in supplementary figure)” value is recorded as 0.27%.
Take `C[N+](C)(C)CCCl.O=C([O-])c1ccc(Cl)cc1O` [[CC][4-ClSal]]: in data set [1], the “Solubility in Hexane” value is reported as “− (insoluble)”, the “Solubility in Toluene” value is “− (insoluble)”, the “Solubility in Isopropanol” value was “+/− (of limited solubility)” and the “Solubility in Acetone” value is on record as “− (insoluble)”. Moreover, in data set [1], the “Solubility in Methanol” value is recorded as “+ (soluble)” and the “Solubility in Water” value is recorded as “+/− (of limited solubility)”. Also, in data set [2], the “Thermal Stability T5%onset” value turned out to be 205.3 °C and the “Thermal Stability Tonset” value is 137.2 °C. Moreover, the “Mass of 25 Sprouts” value in data set [3] (125 mg/L) stood at 2.84 hi D g. For the same compound, in data set [3] (250 mg/L), the “Reduction in Sprout Mass” value is listed as 19.63% and the “Mass of 25 Sprouts” value is listed as 2.48 ij C g. The “SAR Induction (percentage of necrotic area on leaves)” value in data set [4] (125 mg/L spray) is on record as 12.47 bc B %. For the same compound, in data set [4] (125 mg/L), the “Reduction in Necrotic Area” value is on record as 63.9%. In addition, the “SAR Induction (percentage of necrotic area on leaves)” value in data set [4] (250 mg/L spray) was found to be 7.85 bcde A %. Further, in data set [4] (250 mg/L), the “Reduction in Necrotic Area” value was determined as 77.3%.
